For assay [1], the system named is Solid Ehrlich Carcinoma (SEC). As to the kind of experiment: In vivo anti-tumor activity in solid Ehrlich carcinoma (SEC)-bearing mice (tumor mass, volume, TIR%, hematology, histopathology). The method, then:
All experimental protocols were approved by the Research Ethics Committee and Institutional Animal Care and Use Committee, Faculty of Science, Suez Canal University with the ethical code (SCU-Sci-REC439/2025), and all methods were carried out according to the European Union guidelines and in accordance with ARRIVE guidelines. All animals were anesthetized using a combination of Xylazine 10 mg/kg- Ketamine 100 mg/kg of body weight, respectively, prior sacrifice via cervical decapitation.
In all graphs, treatments were administrated intraperitoneal (IP) with 6 mg/Kg B.Wt. for two weeks, day after day.
SIT, FLU and TNZ were tested using the five dose sigmoidal curves to determine the IC50 values. They were tested for the VEGFR2 inhibition using VEGFR2 Kinase Inhibition Assay Kit Catalog # 40325 BPS Bioscience, San Diego, CA. […] At the end of these experiment, anti-tumor potentiality was recorded using tumor weight (mg), tumor volume (mm^3), and the tumor inhibition ratio (TIR%). Hematological parameters of Hemoglobin (Hb, g/dL), RBC’s count (10^6/μL), and WBC’s count (10^3/μL) were investigated, along with histopathological and immunohistochemical staining of the VEGR2 protein.
Adult female Swiss albino mice purchased from Faculty of Pharmacy, Suez Canal University, Ismailia, Egypt, with an average body weight of (18-23) g was used. Mice were housed under constant conditions of 12 h light/dark cycle in a […], with free access to standard laboratory mice food and water. All procedures related to care and maintenance of the animals were performed according to the international guiding principles for animal research and approved by the Faculty of Pharmacy, Suez Canal University bioethics and animal ethics committee.
Solid Ehrlich carcinoma (SEC) was got from the National Cancer Institute (Cairo University, Egypt). The tumor cell line proliferated in mice through serial intraperitoneal (I.P.) transplantation of a volume of 0.2 mL physiological saline containing 1×10^6 viable cells for 24 h. SEC cells were collected 7 days after I.P. implantation. The harvested cells were diluted with saline to obtain a concentration of 5×10^6 viable SEC cells/mL. A volume of 0.2 mL saline contains 1×10^6 SEC cells that were I.P. implanted into each normal mouse. SEC cells (1×10^6 tumor cells/mouse) were implanted subcutaneously into the right thigh of the hind limb.
The experimental animals were randomly divided into four groups. Group 1 served as the normal saline control. Group 2 served as the SEC control (1×10^6 cells/mouse). Group 3 served as the ITR-treated group (6 mg/kg B.Wt., I.P.). […] Body weight and survival were recorded daily until the 24th day in both treated and control groups. At the end of the experiment, anesthetized animals were then sacrificed for evaluation of the antitumor activity and histopathological examination.
It includes tumor volume, weight, and tumor inhibition ratio (TIR%). Time interval measurements of tumor volume using a digital Vernier caliper (Tricle Brand, Shanghai, China). Measure tumor length and width using a clipper and then calculate tumor volume using formulations V = (L x W x W)/2, where V is tumor volume, W is tumor width, L is tumor length. While TIR% was calculated according to the following equation Tumor volume Control-Tumor volume (treated)Tumor volume (control)x 100.
Specimens of liver-sacrificed mice were fixed in 10% saline formalin. The fixed liver specimens were Dehydrated in ascending series of ethyl alcohol and embedded in paraffin.

The test system of the next assay is VEGF. The assay can be described thus: Immunohistochemical staining of VEGF in SEC tumor sections. Format: in vivo, mice. To be noted: IHC of SEC tumor. An excerpt:
VEGF has been considered a biomarker for VEGFR-2 bioactivity, as it binds to and activates this kinase receptor, playing a crucial role in angiogenesis. High VEGF levels are often associated with increased VEGFR-2 expression and activity, making VEGF a marker for VEGFR-2's function and tumor growth. […] The staining intensity is strong (+ 3), with dark brown cytoplasmic staining in most tumor cells. The immunoreactive score (IRS), calculated by multiplying the staining intensity score and the percentage of positive cells, is 9–12, indicating a high level of VEGF expression. This intense VEGF expression correlates with the presence of numerous irregular and dilated blood vessels in the tumor microenvironment.
The paraffin-infiltrated tissue was sliced into thin sections (4-6 μm) using a microtome and floated in a water bath. The sections were then mounted onto charged slides and left to dry overnight. The use of charged slides ensures the sections adhere properly to the slide. To carry out antibody staining, the paraffin wax was removed from the sample, and the tissue was rehydrated. The paraffin was eliminated by placing the tissue sections in three containers of xylene for 5 minutes each. Rehydration began by immersing the sections in two containers of 100% ethanol for 10 minutes each, followed by two containers of 95% ethanol for 10 minutes each. Finally, to complete the rehydration, the sections were washed twice in deionized water for 5 minutes each.
For antigen retrieval, the slides are heated in 10 mM Tris/1 mM EDTA, pH 9.0, kept at a sub-boiling temperature for 18 minutes, and then allowed to cool at room temperature for 30 minutes. For chromogenic staining detection, the sections are rinsed in deionized water three times for 5 minutes each, and then the endogenous peroxidase activity in the tissue sections is quenched to prevent high background staining by incubating the sections in 3% hydrogen peroxide for 10 minutes. Afterward, the sections are washed twice in deionized water for 5 minutes each, followed by a single wash in wash buffer for 5 minutes. A hydrophobic pen is used to carefully draw a large circle around the sample, ensuring it doesn’t touch the sample, creating a hydrophobic boundary to achieve optimal antibody staining quality. To prevent non-specific antibodies from binding to the tissue, each section is blocked with 100–400 µl of blocking solution for 1 hour at room temperature in a humidified chamber. The blocking solution was discarded, and 100–400 µl of diluted primary antibody was applied. […]
The slides were incubated overnight at 4°C in a humidified chamber. […] Then, 100–400 µl of Signal Stain DAB was applied to each section and monitored closely for 1–10 minutes until an acceptable staining intensity was achieved. […]

In the case of `CNC(=O)c1cc(Oc2ccc(NC(=O)Nc3ccc(Cl)c(C(F)(F)F)c3)cc2)ccn1` [Sorafenib], in assay [1] (6 mg/Kg B.Wt. IP, two weeks, day after day, SEC control 469 mg), the solid tumor mass worked out at 229 mg. Further, in assay [1] (6 mg/Kg B.Wt. IP, two weeks, day after day, SEC control 420 mm^3), the tumor volume came out at 214 mm^3. Further, the “WBC's count” value in assay [1] (6 mg/Kg IP, normal 5, SEC control 9.2) is listed as 6.6 10^3/µL. Also, the “RBC's count” value in assay [1] (6 mg/Kg IP, normal 6.9, SEC control 3.1) was 4.9 10^6/µL. Further, in assay [1] (6 mg/Kg IP, normal 11.6, SEC control 4.6), the Hemoglobin level was 6.9 g/dL. Moreover, in assay [1] (isolated tumor mass, SEC control 2.2 cm^2), the “Tumor cell density (histopathology of SEC mass)” value is 0.5 cm^2. Further, the “immunoreactive score (IRS)” value in the assay with VEGF (scale 0-12, SEC control 9–12) is recorded as 1–2. In addition, the “percentage of VEGF-positive tumor cells” value with VEGF (SEC control 80–90%) is 10–30%.

The values are drawn from article PMC12699035, “Exploring market-approved azoles as potential breast cancer therapeutics targeting the VEGFR-2 biotarget” (Scientific Reports, 2025).
